Experimental data as given in ChEMBL document CHEMBL1201862, “PubChem BioAssay data set” (2004).
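Results reflect a 48-hour exposure of cells in 96-well plates to compound at five concentrations. Abbreviation: GI50, concentration required for 50% inhibition of growth.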 Activity calls are given as the source filed them. Cut-off read from the data, not from the text of the source: active = GI50 up to about 1.1 µM and inactive = higher.

Columns and labels:
Assay in all cases: inhibition of tumour cell growth, NCI panel, 48 h
[1] = test system: SF-539
[2] = test system: SK-MEL-28
[3] = test system: LOX IMVI
[4] = test system: U-251
[5] = test system: SNB-19
[6] = test system: SK-OV-3
[7] = test system: NCI-H522
[8] = test system: RXF 631
[9] = test system: SF-295
[10] = test system: RXF 393
[11] = test system: ACHN
[12] = test system: COLO 205
[13] = test system: K562
[14] = test system: XF498
[15] = test system: HOP-62
[16] = test system: OVCAR-8
[17] = test system: M19-MEL
[18] = test system: SK-MEL-2
[19] = test system: SNB-75
[20] = test system: SNB-78
[21] = test system: A549
[22] = test system: OVCAR-4
[23] = test system: IGROV-1
[24] = test system: SK-MEL-5
[25] = test system: MOLT-4
[26] = test system: NCI-H226
[27] = test system: HCT-116
[28] = test system: DMS-273
[29] = test system: RPMI-8226
[30] = test system: HCT-15
[31] = test system: KM12
[32] = test system: Malme-3M
[33] = test system: HCC 2998
[34] = test system: NCI-H23
[35] = test system: DMS-114
[36] = test system: 786-0
[37] = test system: OVCAR-3
[38] = test system: TK-10
[39] = test system: UACC-257
[40] = test system: SW-620
[41] = test system: DLD-1
[42] = test system: EKVX
[43] = test system: M14
[44] = test system: LXFL 529
[45] = test system: UO-31
[46] = test system: SR
[47] = test system: OVCAR-5
[48] = test system: SN12C
[49] = test system: CCRF-CEM
[50] = test system: UACC-62
[51] = test system: HL-60
[52] = test system: SF-268
[53] = test system: NCI-H460
[54] = test system: HT-29
[55] = test system: KM-20L2
[56] = test system: CAKI-1
[57] = test system: HOP-92

SMILES: COC(=O)C1(C)CCc2c(OC)ccc(OC)c2C1=O (configuration not stated)
- GI50 [1]: > 100 µM (inactive)
- GI50 [2]: > 100 µM (inactive)
- GI50 [3]: > 100 µM (inactive)
- GI50 [4]: > 100 µM (inactive)
- GI50 [5]: > 100 µM (inactive)
- GI50 [6]: > 100 µM (inactive)
- GI50 [7]: > 100 µM (inactive)
- GI50 [8]: > 100 µM (inactive)
- GI50 [9]: > 100 µM (inactive)
- GI50 [10]: > 100 µM (inactive)
- GI50 [11]: > 100 µM (inactive)
- GI50 [12]: > 100 µM (inactive)
- GI50 [13]: > 100 µM (inactive)
- GI50 [14]: > 100 µM (inactive)
- GI50 [15]: > 100 µM (inactive)
- GI50 [16]: > 100 µM (inactive)
- GI50 [17]: > 100 µM (inactive)
- GI50 [18]: > 100 µM (inactive)
- GI50 [19]: 29.8 µM (inactive)
- GI50 [20]: > 100 µM (inactive)
- GI50 [21]: > 100 µM (inactive)
- GI50 [22]: > 100 µM (inactive)
- GI50 [23]: > 100 µM (inactive)
- GI50 [24]: > 100 µM (inactive)
- GI50 [25]: > 100 µM (inactive)
- GI50 [26]: > 100 µM (inactive)
- GI50 [27]: > 100 µM (inactive)
- GI50 [28]: > 100 µM (inactive)
- GI50 [29]: > 100 µM (inactive)
- GI50 [30]: > 100 µM
- GI50 [31]: > 100 µM (inactive)
- GI50 [32]: > 100 µM (inactive)
- GI50 [33]: > 100 µM (inactive)
- GI50 [34]: > 100 µM (inactive)
- GI50 [35]: > 100 µM (inactive)
- GI50 [36]: > 100 µM (inactive)
- GI50 [37]: > 100 µM (inactive)
- GI50 [38]: > 100 µM (inactive)
- GI50 [39]: > 100 µM (inactive)
- GI50 [40]: > 100 µM (inactive)
- GI50 [41]: > 100 µM (inactive)
- GI50 [42]: > 100 µM (inactive)
- GI50 [43]: > 100 µM (inactive)
- GI50 [44]: > 100 µM (inactive)
- GI50 [45]: 76.2 µM (inactive)
- GI50 [46]: > 100 µM (inactive)
- GI50 [47]: > 100 µM (inactive)
- GI50 [48]: > 100 µM (inactive)
- GI50 [49]: > 100 µM (inactive)
- GI50 [50]: > 100 µM (inactive)
- GI50 [51]: > 100 µM (inactive)
- GI50 [52]: > 100 µM (inactive)

SMILES: CCC(=O)c1cn(C)c(=O)c2ccccc12
- GI50 [1]: > 100 µM (inactive)
- GI50 [53]: > 100 µM (inactive)
- GI50 [2]: > 100 µM (inactive)
- GI50 [3]: > 100 µM (inactive)
- GI50 [4]: > 100 µM (inactive)
- GI50 [5]: > 100 µM (inactive)
- GI50 [6]: > 100 µM (inactive)
- GI50 [7]: > 100 µM (inactive)
- GI50 [8]: > 100 µM (inactive)
- GI50 [54]: > 100 µM (inactive)
- GI50 [9]: > 100 µM (inactive)
- GI50 [10]: > 100 µM (inactive)
- GI50 [11]: > 100 µM (inactive)
- GI50 [12]: > 100 µM (inactive)
- GI50 [13]: > 100 µM (inactive)
- GI50 [14]: > 100 µM (inactive)
- GI50 [15]: > 100 µM (inactive)
- GI50 [16]: > 100 µM (inactive)
- GI50 [18]: > 100 µM (inactive)
- GI50 [19]: 36.5 µM (inactive)
- GI50 [55]: > 100 µM (inactive)
- GI50 [20]: > 100 µM (inactive)
- GI50 [21]: > 100 µM (inactive)
- GI50 [22]: > 100 µM (inactive)
- GI50 [56]: > 100 µM (inactive)
- GI50 [23]: > 100 µM (inactive)
- GI50 [24]: > 100 µM (inactive)
- GI50 [25]: > 100 µM (inactive)
- GI50 [26]: > 100 µM (inactive)
- GI50 [28]: > 100 µM (inactive)
- GI50 [29]: > 100 µM (inactive)
- GI50 [30]: > 100 µM
- GI50 [31]: > 100 µM (inactive)
- GI50 [32]: > 100 µM (inactive)
- GI50 [33]: > 100 µM (inactive)
- GI50 [34]: > 100 µM (inactive)
- GI50 [35]: > 100 µM (inactive)
- GI50 [36]: > 100 µM (inactive)
- GI50 [37]: > 100 µM (inactive)
- GI50 [38]: > 100 µM (inactive)
- GI50 [39]: > 100 µM (inactive)
- GI50 [40]: > 100 µM (inactive)
- GI50 [57]: > 100 µM (inactive)
- GI50 [41]: > 100 µM (inactive)
- GI50 [42]: > 100 µM (inactive)
- GI50 [43]: > 100 µM (inactive)
- GI50 [44]: > 100 µM (inactive)
- GI50 [45]: > 100 µM (inactive)
- GI50 [46]: > 100 µM (inactive)
- GI50 [47]: > 100 µM (inactive)
- GI50 [48]: > 100 µM (inactive)
- GI50 [49]: > 100 µM (inactive)
- GI50 [50]: > 100 µM (inactive)
- GI50 [51]: > 100 µM (inactive)
- GI50 [52]: > 100 µM (inactive)
